In US20200138854A1, “Method of Detecting and Quantifying Bile Acid from Saliva” (Ironwood Pharmaceuticals, Inc., priority 2017, published 2020):
Values joined by “and” are separate entries in the source; they are usually repeats but may differ in a detail not shown here. Identical values can stand only once.

Columns and labels:
[1] = Long-term (1 month at −20° C. and −80° C.) stability in untreated human saliva; conditions: for Long-term stability in untreated human saliva: at 80° C. (sic); for % Bias QC-High / Difference from Fresh (%) QC-High / Mean concentration QC-High / Concentration QC-High / Mean at Time Zero, Fresh QCs (Batch 34), QC-High: untreated human saliva; for Concentration QC-High: single determinations; for Concentration after long-term storage / Mean concentration after long-term storage: 1 Month; for Concentration after long-term storage / Mean concentration after long-term storage / % Bias / Difference from Fresh (%) / Fresh QCs (Batch 34) Mean at Time Zero: QC-High; for Concentration after long-term storage: individual values, run 35; for Mean concentration after long-term storage: n 3; for % Bias / Difference from Fresh (%): 1 month
Method: For long-term stability in untreated human saliva, samples were prepared by spiking untreated human saliva with each analyte at the QC-Low and QC-High levels. The samples were stored in a −20° C. freezer and in a −80° C. freezer. After 1 month of storage, each sample was extracted in replicates of three for analysis.
A 100-μL aliquot of sample (calibration standards, quality controls, blanks, and stability samples) was transferred into a 96 well plate, according to a pre-defined layout. […] The plates were covered, vortex-mixed and then centrifuged for 5 minutes at 3200 rpm. Supernatants (350 μL each) were transferred into the corresponding wells of a clean 96 well plate and evaporated to dryness under nitrogen in a Turbovap set to 40° C. The dried residue in each well was reconstituted with 75 μL of 50:50 (v:v) methanol:water.

[2] = Frozen (−20° C.) short-term stability in cholestyramine-treated human saliva; conditions: for % Bias QC-LLOQ / Mean concentration QC-LLOQ / Concentration QC-LLOQ / % Bias QC-Mid / Mean concentration QC-Mid / Concentration QC-Mid / % Bias QC-High / Mean concentration QC-High / Concentration QC-High: cholestyramine-treated human saliva; for Concentration QC-LLOQ / Concentration QC-Mid / Concentration QC-High: single determinations; for Mean concentration after frozen (−20° C.) storage: n 4
Method: Quality control samples for the evaluation of accuracy and precision and for run acceptance were prepared on the day of sample extraction. QC samples prepared in cholestyramine-treated saliva are to be prepared in small volumes for analysis. Stability for these QC samples would be limited to short-term storage (i.e., 2 days) whereas untreated human saliva would be evaluated for long-term storage.
For stability in cholestyramine-treated human saliva, samples were prepared by spiking cholestyramine-treated human saliva with each analyte at the QC-LLOQ, QC-Low, QC-Mid and QC-High levels. The samples were stored in a −20° C. freezer. After 1 day and 2 days of storage, each sample was extracted in replicates of four for analysis.

[3] = nominal 800 ng/mL, 1 month −20° C. storage
[4] = nominal 800 ng/mL, 1 month −80° C. storage
[5] = nominal 5.00 ng/mL, 1 Day frozen (−20° C.)
[6] = nominal 5.00 ng/mL, 2 Days frozen (−20° C.)
[7] = nominal 80.0 ng/mL, 1 Day frozen (−20° C.)
[8] = nominal 80.0 ng/mL, 2 Days frozen (−20° C.)
[9] = nominal 800 ng/mL, 1 Day frozen (−20° C.)
[10] = nominal 800 ng/mL, 2 Days frozen (−20° C.)
[11] = −20° C. Storage, nominal 80.0 ng/mL
[12] = −80° C. Storage, nominal 80.0 ng/mL
[13] = nominal 80.0 ng/mL, 1 month −20° C. storage
[14] = nominal 80.0 ng/mL, 1 month −80° C. storage
[15] = nominal 0.500 ng/mL, 1 Day frozen (−20° C.)
[16] = nominal 0.500 ng/mL, 2 Days frozen (−20° C.)
[17] = nominal 8.00 ng/mL, 1 Day frozen (−20° C.)
[18] = nominal 8.00 ng/mL, 2 Days frozen (−20° C.)

For `C[C@H](CCC(=O)O)[C@H]1CC[C@H]2[C@@H]3[C@H](O)C[C@@H]4C[C@H](O)CC[C@]4(C)[C@H]3CC[C@]12C` [Chenodeoxycholic Acid, Chenodeoxycholic acid], which “Long-term stability in untreated human saliva” value [1] is on record?
The value was “up to 1 month”.

And the “Stability in Untreated Human Saliva” value ([1]; at −20° C.)?
Its value is 1 Month.

What about the “Stability in Untreated Human Saliva” value ([1]; at −80° C.) of the same molecule?
Its value is 1 Month.

What about the “% Bias QC-High” value [1, 3] of the same molecule?
Its value is −15.1%.

What about the “Difference from Fresh (%) QC-High” value [1, 3] of the same molecule?
The value was −13.5%.

What about the “Mean concentration QC-High” value [1, 3] of the same molecule?
Its value is 679 ng/mL.

And the “Concentration QC-High” value [1, 3]?
The value was 693 ng/mL and 686 ng/mL and 659 ng/mL.

What about the “% Bias QC-High” value [1, 4] of the same molecule?
The value was −15.7%.

What about the “Difference from Fresh (%) QC-High” value [1, 4] of the same molecule?
Its value is −14.1%.

What about the “Mean concentration QC-High” value [1, 4] of the same molecule?
The value was 674 ng/mL.

What about the “Concentration QC-High” value [1, 4] of the same molecule?
Its value is 701 ng/mL and 692 ng/mL and 630 ng/mL.

What about the “Mean at Time Zero, Fresh QCs (Batch 34), QC-High” value ([1]; nominal 800 ng/mL, reference for −20° C. storage) of the same molecule?
Its value is 785 ng/mL.

What about the “Mean at Time Zero, Fresh QCs (Batch 34), QC-High” value ([1]; nominal 800 ng/mL, reference for −80° C. storage) of the same molecule?
The value was 785 ng/mL.

What about the “Short-term stability in cholestyramine-treated human saliva” value [2] of the same molecule?
Its value is “up to 2 days”.

And the “Stability in Treated Human Saliva” value [2]?
Its value is 2 days.

What about the “% Bias QC-LLOQ” value [2, 5] of the same molecule?
The value was 0.4%.

And the “Mean concentration QC-LLOQ” value [2, 5]?
The value was 5.02 ng/mL.

What about the “Concentration QC-LLOQ” value [2, 5] of the same molecule?
The value was 4.72 ng/mL and 5.20 ng/mL and 4.89 ng/mL and 5.28 ng/mL.

What about the “% Bias QC-LLOQ” value [2, 6] of the same molecule?
The value was 18.3%.

What about the “Mean concentration QC-LLOQ” value [2, 6] of the same molecule?
Its value is 5.92 ng/mL.

What about the “Concentration QC-LLOQ” value [2, 6] of the same molecule?
Its value is 5.73 ng/mL and 6.15 ng/mL and 5.60 ng/mL and 6.18 ng/mL.

And the “% Bias QC-Mid” value [2, 7]?
The value was 2.5%.

And the “Mean concentration QC-Mid” value [2, 7]?
Its value is 82.0 ng/mL.

What about the “Concentration QC-Mid” value [2, 7] of the same molecule?
The value was 85.9 ng/mL and 84.8 ng/mL and 78.0 ng/mL and 79.2 ng/mL.

What about the “% Bias QC-Mid” value [2, 8] of the same molecule?
The value was 4.6%.

And the “Mean concentration QC-Mid” value [2, 8]?
Its value is 83.7 ng/mL.

And the “Concentration QC-Mid” value [2, 8]?
The value was 80.0 ng/mL and 87.1 ng/mL and 88.9 ng/mL and 78.8 ng/mL.

And the “% Bias QC-High” value [2, 9]?
Its value is −14.7%.

And the “Mean concentration QC-High” value [2, 9]?
Its value is 683 ng/mL.

What about the “Concentration QC-High” value [2, 9] of the same molecule?
Its value is 644 ng/mL and 699 ng/mL and 671 ng/mL and 717 ng/mL.

What about the “% Bias QC-High” value [2, 10] of the same molecule?
Its value is −9.3%.

And the “Mean concentration QC-High” value [2, 10]?
Its value is 725 ng/mL.

What about the “Concentration QC-High” value [2, 10] of the same molecule?
The value was 693 ng/mL and 777 ng/mL and 725 ng/mL and 706 ng/mL.

What does the source list for `C[C@H](CCC(=O)O)[C@H]1CC[C@H]2[C@@H]3[C@H](O)C[C@@H]4C[C@H](O)CC[C@]4(C)[C@H]3C[C@H](O)[C@]12C` [Cholic Acid, Cholic acid]?
Concentration after long-term storage [1, 11]: 72.6 ng/mL and 76.7 ng/mL and 76.0 ng/mL; Mean concentration after long-term storage [1, 11]: 75.1 ng/mL; Concentration after long-term storage [1, 12]: 79.6 ng/mL and 77.9 ng/mL and 77.2 ng/mL; Mean concentration after long-term storage [1, 12]: 78.2 ng/mL; % Bias [1, 11]: −6.1%; Difference from Fresh (%) [1, 11]: −6.1%; % Bias [1, 12]: −2.2%; Difference from Fresh (%) [1, 12]: −2.2%; Fresh QCs (Batch 34) Mean at Time Zero ([1]; reference for −20° C. Storage, nominal 80.0 ng/mL): 80.0 ng/mL; Fresh QCs (Batch 34) Mean at Time Zero ([1]; reference for −80° C. Storage, nominal 80.0 ng/mL): 80.0 ng/mL; % Bias ([2]; Storage period 1 Day at −20° C., QC-High, nominal 80.0 ng/mL): −6.7%; % Bias ([2]; Storage period 1 Day at −20° C., QC-LLOQ, nominal 0.500 ng/mL): −0.9%; % Bias ([2]; Storage period 1 Day at −20° C., QC-Mid, nominal 8.00 ng/mL): −5.9%; Mean concentration after frozen (−20° C.) storage ([2]; Storage period 1 Day, QC-High, nominal 80.0 ng/mL): 74.7 ng/mL; Mean concentration after frozen (−20° C.) storage ([2]; Storage period 1 Day, QC-LLOQ, nominal 0.500 ng/mL): 0.496 ng/mL; Mean concentration after frozen (−20° C.) storage ([2]; Storage period 1 Day, QC-Mid, nominal 8.00 ng/mL): 7.53 ng/mL; % Bias ([2]; Storage period 2 Days at −20° C., QC-High, nominal 80.0 ng/mL): −6.2%; % Bias ([2]; Storage period 2 Days at −20° C., QC-LLOQ, nominal 0.500 ng/mL): 12.1%; % Bias ([2]; Storage period 2 Days at −20° C., QC-Mid, nominal 8.00 ng/mL): −3.6%; Mean concentration after frozen (−20° C.) storage ([2]; Storage period 2 Days, QC-High, nominal 80.0 ng/mL): 75.1 ng/mL; Mean concentration after frozen (−20° C.) storage ([2]; Storage period 2 Days, QC-LLOQ, nominal 0.500 ng/mL): 0.561 ng/mL; Mean concentration after frozen (−20° C.) storage ([2]; Storage period 2 Days, QC-Mid, nominal 8.00 ng/mL): 7.72 ng/mL

What does the source list for `C[C@H](CCC(=O)NCC(=O)O)[C@H]1CC[C@H]2[C@@H]3[C@H](O)C[C@@H]4C[C@H](O)CC[C@]4(C)[C@H]3C[C@H](O)[C@]12C` [Glycocholic Acid, Glycocholic acid]?
Long-term stability in untreated human saliva [1]: up to 1 month; Stability in Untreated Human Saliva ([1]; at −20° C.): 1 Month; Stability in Untreated Human Saliva ([1]; at −80° C.): 1 Month; % Bias QC-High [1, 13]: −5.9%; Difference from Fresh (%) QC-High [1, 13]: −6.3%; Mean concentration QC-High [1, 13]: 75.3 ng/mL; Concentration QC-High [1, 13]: 72.8 ng/mL and 75.6 ng/mL and 77.5 ng/mL; % Bias QC-High [1, 14]: −4.8%; Difference from Fresh (%) QC-High [1, 14]: −5.3%; Mean concentration QC-High [1, 14]: 76.1 ng/mL; Concentration QC-High [1, 14]: 78.4 ng/mL and 75.9 ng/mL and 74.1 ng/mL; Mean at Time Zero, Fresh QCs (Batch 34), QC-High ([1]; nominal 80.0 ng/mL, reference for −20° C. storage): 80.4 ng/mL; Mean at Time Zero, Fresh QCs (Batch 34), QC-High ([1]; nominal 80.0 ng/mL, reference for −80° C. storage): 80.4 ng/mL; Short-term stability in cholestyramine-treated human saliva [2]: up to 2 days; Stability in Treated Human Saliva [2]: 2 days; % Bias QC-LLOQ [2, 15]: −1.8%; Mean concentration QC-LLOQ [2, 15]: 0.491 ng/mL; Concentration QC-LLOQ [2, 15]: 0.485 ng/mL and 0.474 ng/mL and 0.464 ng/mL and 0.541 ng/mL; % Bias QC-LLOQ [2, 16]: 8.5%; Mean concentration QC-LLOQ [2, 16]: 0.542 ng/mL; Concentration QC-LLOQ [2, 16]: 0.464 ng/mL and 0.541 ng/mL and 0.485 ng/mL and 0.474 ng/mL; % Bias QC-Mid [2, 17]: −10.3%; Mean concentration QC-Mid [2, 17]: 7.18 ng/mL; Concentration QC-Mid [2, 17]: 7.20 ng/mL and 7.21 ng/mL and 7.28 ng/mL and 7.01 ng/mL; % Bias QC-Mid [2, 18]: −8.3%; Mean concentration QC-Mid [2, 18]: 7.34 ng/mL; Concentration QC-Mid [2, 18]: 7.28 ng/mL and 7.01 ng/mL and 7.20 ng/mL and 7.21 ng/mL; % Bias QC-High [2, 7]: −7.5%; Mean concentration QC-High [2, 7]: 74.0 ng/mL; Concentration QC-High [2, 7]: 73.2 ng/mL and 74.9 ng/mL and 73.6 ng/mL and 74.2 ng/mL; % Bias QC-High [2, 8]: −6.7%; Mean concentration QC-High [2, 8]: 74.7 ng/mL; Concentration QC-High [2, 8]: 73.6 ng/mL and 74.2 ng/mL and 73.2 ng/mL and 74.9 ng/mL

For `C[C@H](CCC(=O)O)[C@H]1CC[C@H]2[C@@H]3CC[C@@H]4C[C@H](O)CC[C@]4(C)[C@H]3CC[C@]12C` [Lithocholic Acid, Lithocholic acid], which “Short-term stability in cholestyramine-treated human saliva” value [2] is on record?
The value was “up to 2 days”.

What about the “Stability in Treated Human Saliva” value [2] of the same molecule?
The value was 2 days.
